Results from patent US6946588B2, “Nucleic acid encoding a modified threonine deaminase and methods of use” (Monsanto Technology LLC, priority 1996, dated 2005).

Key:
BktB β-ketothiolase = BktB β-ketothiolase (Cupriavidus necator, UniProt Q0KBP1); experiment: Thiolysis kinetics of purified BktB β-ketothiolase; conditions: 25° C.
Protocol: To enhance further our understanding of the kinetic characteristics of BktB β-ketothiolase, a thorough kinetic analysis of the enzyme's thiolysis activity was conducted using purified protein. The assay to determine the kinetic parameters Km and Vmax for βketobutyryl-CoA (C4), β-ketovaleryl-CoA (C5), and β-ketocaproyl-CoA (C6), was performed at 25° C. by the in situ generation of the β-keto compounds from their corresponding trans-2,3-enoyl-CoAs essentially as described by Haywood et al. (1988). Utilization of variable substrate concentrations permitted the determination of the descriptive kinetic parameters of the β-ketothiolase. Kinetic rates were determined only at fixed substrate concentrations in the Haywood et al. communication.
Purified BktB protein was prepared by growing E. coli […] transformed with pMON25754 in LB broth containing ampicillin (100μg/ml) overnight at 37° C. Cells were then harvested by centrifugation, and the pellet was resuspended in 50 mM KPi and 5% glycerol, sonicated, and the sonicate centrifuged to remove cellular debris. The cell extract was desalted using a PD-10 column (Pharmacia), and proteins resolved using a Pharmacia FPLC system and MonoQ anion-exchange column (Pharmacia). Buffer A was 10 mM Tris buffer, pH 7.8, plus 1 mM DTT; buffer B was buffer A plus 1 M KCl. The gradient was 0 to 10% B in 10 min, then to 35% B in 40 min. The flow rate was 1 ml/min, and the resolved proteins were collected at the rate of 1 ml/fraction. […] The enzyme was stored in 10 mM Tris-HCl, pH 7.8, 1 mM DTT, 50% glycerol at −20° C.
The C5 and C6 enoyl-CoAs were synthesized according to Schulz (1974) and purified using semi-prep C8-reverse-phase HPLC as described above for β-ketovaleryl-CoA. βketobutyryl-CoA (acetoacetyl-CoA) was purchased from Sigma (St. Louis, Mo.). The assay mixture (1 ml final volume) contained 150 mM EPPS, pH 8.0, 50 mM MgCl2, 1.5 mM pyruvate, 0.4 mM NAD+, and a coupling enzyme cocktail of three units crotonase, five units β-hydroxyacyl-CoA dehydrogenase, and 10 units lactic dehydrogenase. The enoyl-CoA was added to this mixture and the absorbance at 304 nm was monitored until it reached a plateau (typically about 5 min). CoA was added to this mixture, followed by BktB β-ketothiolase to initiate the reaction. The decrease in absorbance at 304 nm due to the thiolysis of the β-ketoacyl-CoA was utilized as a direct measure of activity. Extinction coefficients to convert absorbance units to μmol of product were 19.5, 12.2, and 14.0 cm^−1 mM^−1 for β-ketobutyryl-CoA, β-ketovaleryl-CoA, and β-ketocaproyl-CoA, respectively. β-ketoacyl-CoA concentration was varied from […] (CoA was fixed at 200 μM), and CoA concentration was varied from 20 to 400 μM (β-ketocaproyl-CoA was fixed at 60 μM) for determining kinetic parameters for β-ketoacyl-CoA and CoA, respectively. Reaction rates were calculated in the steady-state within the first minute following initiation. All data were fitted to the normal Michaelis-Menten equation using a non-linear regression analysis.

[1] = test system: A. eutrophus PhbA and BktB β-ketothiolases; experiment: β-Ketothiolase condensation assay with 1-14C-acetyl-CoA (PhbA, BktB); assay type: biochemical; conditions: 0.30 mM acetyl-CoA
Source text: As noted above, A. eutrophus can produce P(3HB-co-3HV) copolymer when provided with an appropriate C5 precursor. […] One of these β-ketothiolases, designated BktB herein, was encoded on plasmid pBK6. A. eutrophus BktB was obtained from E. coli DH5α transformed with plasmid pMON25754. pMON25754 was produced from the A. eutrophus pBK6 clone (Slater et al., 1988) by deleting a 5.0 kb XhoI fragment (there is an additional XhoI site approximately 5.0 kb 5′ to the XhoI site shown in FIG. 1 of Slater et al.). The pBK6 clone was produced by Slater et al. (1988) from A. eutrophus H16, i.e., ATCC accession number 17699, which is publicly available from the American Type Culture Collection, 12301 Parklawn Drive, Rockville, Md. 20852. BktB was overexpressed from its native promoter on the high copy plasmid pMON25754 by growing the cells overnight at 37° C. to stationary phase in LB broth containing ampicillin (100 μg/ml). A. eutrophus PhbA was obtained from E. coli DH5α transformed with pMON25636 (FIG. 20) by growing the cells at 37° C. in LB broth containing ampicillin (100 μg/ml) to early log phase and then inducing with IPTG. Cells were harvested after two hours of further growth.
The activity of β-ketothiolases can be assayed in both the condensation and thiolysis directions. However, condensation activity for products that are the result of a mixed condensation of acetyl-CoA and a longer chain acyl-CoA are difficult to measure. This is due to the difficulty in distinguishing between acetoacetyl-CoA, the product of condensing two acetyl-CoA molecules, and the mixed condensation reaction product, both of which form simultaneously. To date, condensation assays have been spectrophotometrically-based, but these are valid only when there is a single acyl-CoA substrate present (i.e., acetyl-CoA) since they cannot discriminate between the products formed. The assay described below represents the first reported assay that permits complete quantitation of all condensation products regardless of the nature of starting substrates.
β-ketothiolase assays designed to measure the condensation activity with acetyl-CoA plus either propionyl-CoA or butyryl-CoA were performed using 1-^14C-labelled acetyl-CoA. Since the equilibrium for the reaction lies heavily toward the starting acyl-CoAs rather than the condensed β-ketoacyl-CoA product, the latter was “pulled” to the corresponding β-hydroxyacyl-CoA using NADH and β-ketoacyl-CoA dehydrogenase. In addition, to avoid the strong feedback inhibition of β-ketothiolase by free CoA, each assay solution contained 5,5′-dithio-bis(2-nitrobenzoic acid) (DTNB) to trap chemically the free CoA produced by the reaction.
The condensation assay mixture (0.5 ml final volume) contained 100 mM KPi, pH 7.8, 0.5 mM NADH, 0.30 mM 1-^14C-acetyl-CoA (0.15 μCi), 5 units β-ketoacyl-CoA dehydrogenase, 0.5 mM DTNB, and variable propionyl- or butyryl-CoA as indicated in Table 5. The reaction was initiated by the addition of β-ketothiolase. Following 20 minutes at 30° C., each reaction mixture was quenched by the addition of 25 μl of 10% formic acid. Thirty μl of 25% H2SO4 were added to 200 μl of quenched reaction mix; this mixture was then incubated at 70° C. for 24 hours to hydrolyze all CoA thioesters to their free acids. Sixty μl of 5 M sodium formate were added to the sample to neutralize the pH, followed by analysis of a 130 μl aliquot using C18-reverse-phase HPLC (0.5×25 cm column). Detection and quantitation were carried out by monitoring flow-through with a Radiomatic flow detector. A gradient elution was employed using aqueous 1% acetic acid (solvent A) and acetonitrile (solvent B). […]

Chain of BktB β-ketothiolase (Q0KBP1 2-394 limits assumed): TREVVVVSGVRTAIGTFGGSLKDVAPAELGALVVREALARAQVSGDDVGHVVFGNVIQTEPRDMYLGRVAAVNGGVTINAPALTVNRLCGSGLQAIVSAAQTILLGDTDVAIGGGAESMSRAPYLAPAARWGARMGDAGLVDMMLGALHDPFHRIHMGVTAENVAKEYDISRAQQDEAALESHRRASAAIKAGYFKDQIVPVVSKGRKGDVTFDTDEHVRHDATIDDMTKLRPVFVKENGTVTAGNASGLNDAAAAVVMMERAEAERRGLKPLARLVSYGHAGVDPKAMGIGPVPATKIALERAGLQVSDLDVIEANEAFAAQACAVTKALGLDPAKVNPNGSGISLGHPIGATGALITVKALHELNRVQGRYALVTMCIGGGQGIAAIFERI

CCCC(=O)CC(=O)SCCNC(=O)CCNC(=O)[C@H](O)C(C)(C)COP(=O)(O)OP(=O)(O)OC[C@H]1O[C@@H](n2cnc3c(N)ncnc32)[C@H](O)[C@@H]1OP(=O)(O)O [B-ketocaproyl-CoA]
Km (BktB β-ketothiolase; CoA fixed at 200 μM): 6 ± 0.7 µM
Vmax (BktB β-ketothiolase; CoA fixed at 200 μM): 103 ± 3 u/mg

CCC(=O)CC(=O)SCCNC(=O)CCNC(=O)[C@H](O)C(C)(C)COP(=O)(O)OP(=O)(O)OC[C@H]1O[C@@H](n2cnc3c(N)ncnc32)[C@H](O)[C@@H]1OP(=O)(O)O [B-ketovaleryl-CoA]
Km (BktB β-ketothiolase; CoA fixed at 200 μM): 15 ± 1 µM
Vmax (BktB β-ketothiolase; CoA fixed at 200 μM): 236 ± 8 u/mg

CC(C)(COP(=O)(O)OP(=O)(O)OC[C@H]1O[C@@H](n2cnc3c(N)ncnc32)[C@H](O)[C@@H]1OP(=O)(O)O)[C@@H](O)C(=O)NCCC(=O)NCCS [CoA, coenzyme A]
Vmax (BktB β-ketothiolase; β-ketocaproyl-CoA fixed at 60 μM): 98 ± 3 u/mg

CC(=O)CC(=O)SCCNC(=O)CCNC(=O)[C@H](O)C(C)(C)COP(=O)(O)OP(=O)(O)OC[C@H]1O[C@@H](n2cnc3c(N)ncnc32)[C@H](O)[C@@H]1OP(=O)(O)O [B-ketobutyryl-CoA]
Km (BktB β-ketothiolase; CoA fixed at 200 μM): 37 ± 3 µM
Vmax (BktB β-ketothiolase; CoA fixed at 200 μM): 122 ± 5 u/mg

B1: PhbA: A. eutrophus PhbA β-ketothiolase obtained from E. coli DH5α transformed with pMON25636 (protein, UniProt P14611 1-393, looked up)
Acetyl-CoA acetyltransferase: MTDVVIVSAARTAVGKFGGSLAKIPAPELGAVVIKAALERAGVKPEQVSEVIMGQVLTAGSGQNPARQAAIKAGLPAMVPAMTINKVCGSGLKAVMLAANAIMAGDAEIVVAGGQENMSAAPHVLPGSRDGFRMGDAKLVDTMIVDGLWDVYNQYHMGITAENVAKEYGITREAQDEFAVGSQNKAEAAQKAGKFDEEIVPVLIPQRKGDPVAFKTDEFVRQGATLDSMSGLKPAFDKAGTVTAANASGLNDGAAAVVVMSAAKAKELGLTPLATIKSYANAGVDPKVMGMGPVPASKRALSRAEWTPQDLDLMEINEAFAAQALAVHQQMGWDTSKVNVNGGAIAIGHPIGASGCRILVTLLHEMKRRDAKKGLASLCIGGGMGVALAVERK
modifications: expressed in E. coli
notes: A. eutrophus PhbA β-ketothiolase obtained from E. coli DH5α transformed with pMON25636
% Turnover C4 Product ([1]; propionyl-CoA 0 mM): 16.9%
% Turnover C4 Product ([1]; propionyl-CoA 0.6 mM): 13.5%
% Turnover C5 Product ([1]; propionyl-CoA 0.6 mM): 0%
% Turnover C4 Product ([1]; propionyl-CoA 1.2 mM): 10.3%
% Turnover C5 Product ([1]; propionyl-CoA 1.2 mM): 0%
% Turnover C4 Product ([1]; propionyl-CoA 2.4 mM): 7.0%
% Turnover C5 Product ([1]; propionyl-CoA 2.4 mM): 0%
